Assays:
[1] = target: T1, ALK2R206H (mutant ALK2, N-terminally tagged with GST) (Homo sapiens, UniProt Q04771, R206H); experiment: ALK binding assay (LANTHASCREEN TR-FRET competitive binding, displacement of Kinase Tracer 178); conditions: read-out: Binding Assay (IC50 class)
T1 construct: purchased Carna Bioscience or ThermoFisher 09-148 or PV6232
T1 sequence (Q04771 21-509 R206H): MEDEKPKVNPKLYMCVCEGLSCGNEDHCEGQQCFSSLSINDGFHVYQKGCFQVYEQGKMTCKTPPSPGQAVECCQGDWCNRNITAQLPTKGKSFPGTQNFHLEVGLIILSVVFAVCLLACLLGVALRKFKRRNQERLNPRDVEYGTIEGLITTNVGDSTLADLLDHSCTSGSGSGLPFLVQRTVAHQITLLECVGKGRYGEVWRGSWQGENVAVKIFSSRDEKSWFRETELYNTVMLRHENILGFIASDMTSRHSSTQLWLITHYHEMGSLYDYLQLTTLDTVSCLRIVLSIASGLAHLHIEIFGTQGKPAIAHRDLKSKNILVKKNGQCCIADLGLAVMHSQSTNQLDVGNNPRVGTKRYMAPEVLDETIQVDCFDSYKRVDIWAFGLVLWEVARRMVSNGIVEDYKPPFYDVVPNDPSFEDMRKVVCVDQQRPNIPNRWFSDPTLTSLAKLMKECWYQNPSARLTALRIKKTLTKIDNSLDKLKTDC
How it was run: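 Competitive displacement of Kinase Tracer 178 (50 nM) from N-terminally GST-tagged mutant ALK2 R206H (2-5 nM) by compound, detected by TR-FRET with Eu-anti-GST antibody (4-10 nM). 30 min room temperature incubation, 1% DMSO final; normalized signal fitted to 4-parameter log dose response for IC50.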

human ALK2 R206H = target: T2, human ALK2 R206H (Homo sapiens, UniProt Q04771, R206H); experiment: Cell-based ALK2-R206H cell activity assay (Smad1-Ser463/Ser465 phosphorylation by AlphaLISA in HEK293-ALK2-R206H cells); conditions: phospho-Smad1 AlphaLISA, read-out: Cell Line (Cell Assay, IC50 class)
T2 construct: expressed in transfected cells; host or cells: HEK293 (ATCC CRL1573), lentivirus transduction, blasticidin selection
T2 sequence (Q04771 21-509 R206H): T1 sequence (Q04771 21-509 R206H)
How it was run: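 IC50 comes from a 10-point curve, scaled between DMSO and 1 μM LDN193189 controls, of lysate phospho-Smad1 (Ser463/465) measured by AlphaLISA. Compounds (top 10 μM or 1 μM, 3-fold steps, duplicates) were given 2-3 h to serum-starved HEK293 cells that stably express FLAG-tagged human ALK2 R206H.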

SMILES	IC50 [1] [µM]	IC50 (human ALK2 R206H) [µM]
Cc1nc(-c2[nH]c3nccc(N4CCN(C(=O)OC5CC5)CC4)c3c2C#N)cn1C [Compound 201]	≤ 0.01	≤ 0.1
Cn1cc(-c2cc3c(N4CCN(C(=O)O[C@H]5C[C@H](C#N)C5)CC4)ccnc3[nH]2)cn1 [Compound 202]	≤ 0.01	≤ 0.1
Cn1cc(-c2cc3c(N4CCN(C(=O)OC5COC5)CC4)ccnc3[nH]2)cc1C#N [Compound 203]	≤ 0.01	≤ 0.1
CCOC(=O)N1CCN(c2ccnc3[nH]c(-c4ncc(OC)cc4C#N)cc23)CC1 [Compound 204]	≤ 0.01	0.1 to 0.5
Cc1nc(-c2cc3c(N4CCN(C(=O)[C@H]5C[C@H](C#N)C5)CC4)ccnc3[nH]2)cs1 [Compound 205, (1r,3r)-3-(4-(2-(2-methylthiazol-4-yl)-1H-pyrrolo[2,3-b]pyridin-4-yl)piperazine-1-carbonyl)cyclobutanecarbonitrile]	≤ 0.01	≤ 0.1
Cn1cc(-c2[nH]c3nccc(N4CCN(C(=O)OC5COC5)CC4)c3c2C#N)cn1 [Compound 207]	≤ 0.01	≤ 0.1
Cn1cnc(-c2[nH]c3nccc(N4CCN(C(=O)OC5COC5)CC4)c3c2C#N)c1 [Compound 208]	≤ 0.01	≤ 0.1
Cn1ncc(-c2cc3c(N4CCN(C(=O)OC5COC5)CC4)ccnc3[nH]2)c1C#N [Compound 210]	≤ 0.01	0.1 to 0.5
Cc1nc(-c2cc3c(N4CCN(C(=O)OCC(F)F)CC4)ccnc3[nH]2)cs1 [Compound 212]	≤ 0.01	≤ 0.1
CCOC(=O)N1CCN(c2ccnc3[nH]c(-c4cnn(C(C)(C)C#N)c4)cc23)CC1 [Compound 213]	≤ 0.01	0.1 to 0.5
CCOC(=O)N1CCN(c2ccnc3[nH]c(-c4cnn(CC(C)C#N)c4)cc23)CC1 (stereo not drawn) [Compound 214]	≤ 0.01	0.1 to 0.5
Cn1ncc(-c2[nH]c3nccc(N4CCN(C(=O)OC5COC5)CC4)c3c2C#N)n1 [Compound 215]	≤ 0.01	0.1 to 0.5
O=C(OC1COC1)N1CCN(c2ccnc3[nH]c(-c4cn5c(n4)CCC5)cc23)CC1 [Compound 218]	≤ 0.01	≤ 0.1
O=C(OC1COC1)N1CCN(c2ccnc3[nH]c(-c4cnn(C5CC5)c4)cc23)CC1 [Compound 219]	≤ 0.01	≤ 0.1
O=C(OC1COC1)N1CCN(c2ccnc3[nH]c(-c4cn[nH]c4C4CC4)cc23)CC1 [Compound 220]	0.01 to 0.05	> 0.5
CCOC(=O)N1CCN(c2ccnc3[nH]c(-c4ccc(OC(C)C)cc4)cc23)CC1 [Compound 221]	≤ 0.01	0.1 to 0.5
Cn1cc(-c2cc3c(N4CCN(C(=O)[C@H]5CC[C@H](O)CC5)CC4)ccnc3[nH]2)cn1 [Compound 224]	≤ 0.01	> 0.5
C[S+]([O-])c1ccc(-c2cc3c(N4CCN(C(=O)C5CC5)CC4)ccnc3[nH]2)cc1 (stereo not drawn) [Compound 225]	≤ 0.01	0.1 to 0.5
N#Cc1cc(-c2cc3c(N4CCN(C(=O)OC5COC5)CC4)ccnc3[nH]2)cs1 [Compound 227]	≤ 0.01	0.1 to 0.5
Cn1cc(-c2[nH]c3nccc(N4CCN(C(=O)[C@H]5C[C@@H]5C#N)CC4)c3c2Cl)cn1 [Compound 228]	≤ 0.01	≤ 0.1
CC(C)n1cnc(-c2cc3c(N4CCN(C(=O)OC5COC5)CC4)ccnc3[nH]2)c1 [Compound 231]	≤ 0.01	≤ 0.1
CO[C@H]1C[C@H](OC(=O)N2CCN(c3ccnc4[nH]c(-c5cnn(C)c5)cc34)CC2)C1 [Compound 232]	≤ 0.01	≤ 0.1
COC1CC(OC(=O)N2CCN(c3ccnc4[nH]c(-c5cnn(C)c5)cc34)CC2)C1 (stereo not drawn) [Compound 233]	≤ 0.01	0.1 to 0.5
Cn1cc(-c2cc3c(N4CCN(C(=O)OC5CCOCC5)CC4)ccnc3[nH]2)cn1 [Compound 234]	≤ 0.01	0.1 to 0.5
N#CC1(c2ccc(-c3cc4c(N5CCN(C(=O)C6CC6)CC5)ccnc4[nH]3)cc2)CC1 [Compound 241]	≤ 0.01	≤ 0.1
Cc1nc(-c2cc3c(N4CCN(C(=O)OC5CCC5)CC4)ccnc3[nH]2)sc1C [Compound 242]	≤ 0.01	≤ 0.1
Cc1nc(-c2cc3c(N4CCN(C(=O)O[C@H]5C[C@@H](F)C5)CC4)ccnc3[nH]2)cn1C [Compound 243]	≤ 0.01	≤ 0.1

SMILES	IC50 [1] [µM]	IC50 (human ALK2 R206H) [µM]
Cc1nc(-c2cc3c(N4CCN(C(=O)O[C@H]5C[C@H](F)C5)CC4)ccnc3[nH]2)cn1C [Compound 244]	≤ 0.01	≤ 0.1
Cc1c(-c2cnn(C)c2)[nH]c2nccc(N3CCN(C(=O)O[C@H]4C[C@H](F)C4)CC3)c12 [Compound 245]	≤ 0.01	≤ 0.1
CCc1nc(-c2cc3c(N4CCN(C(=O)OC5COC5)CC4)ccnc3[nH]2)cs1 [Compound 248]	≤ 0.01	≤ 0.1
CCc1cnc(-c2cc3c(N4CCN(C(=O)OC5COC5)CC4)ccnc3[nH]2)s1 [Compound 249]	≤ 0.01	≤ 0.1
Cc1nc(-c2cc3c(N4CCN(C(=O)OC5COC5)CC4)ccnc3[nH]2)sc1C [Compound 250]	≤ 0.01	≤ 0.1
CCc1csc(-c2cc3c(N4CCN(C(=O)OC5COC5)CC4)ccnc3[nH]2)n1 [Compound 251]	≤ 0.01	0.1 to 0.5
CC(C)(C#N)c1ccc(-c2cc3c(N4CCN(C(=O)C5CC5)CC4)ccnc3[nH]2)cc1 [Compound 252]	≤ 0.01	≤ 0.1
Cn1cc(-c2cc3c(N4CCN(C(=O)O[C@H]5COC[C@@H]5F)CC4)ccnc3[nH]2)cn1 [Compound 254]	≤ 0.01	0.1 to 0.5
Cn1cc(-c2[nH]c3nccc(N4CCN(C(=O)OC5CCC5)CC4)c3c2Cl)cn1 [Compound 255]	≤ 0.01	≤ 0.1
Cn1cc(-c2[nH]c3nccc(N4CCN(C(=O)OCC(F)F)CC4)c3c2C#N)cn1 [Compound 256]	≤ 0.01	≤ 0.1
Cn1cnc(-c2[nH]c3nccc(N4CCN(C(=O)OCC(F)F)CC4)c3c2C#N)c1 [Compound 257]	≤ 0.01	≤ 0.1
CCOC(=O)N1CCN(c2ccnc3[nH]c(-c4cnn(C(F)F)c4)c(C#N)c23)CC1 [Compound 258]	≤ 0.01	≤ 0.1
COc1nc(-c2cc3c(N4CCN(C(=O)OC5COC5)CC4)ccnc3[nH]2)cs1 [Compound 259]	≤ 0.01	0.1 to 0.5
Cc1nc(-c2cc3c(N4CCN(C(=O)O[C@H]5C[C@H](F)C5)CC4)ccnc3[nH]2)cs1 [Compound 260]	≤ 0.01	≤ 0.1
Cn1cc(-c2cc3c(N4CCN(C(=O)OC5CCC5(F)F)CC4)ccnc3[nH]2)cn1 (stereo not drawn) [Compound 262]	≤ 0.01	≤ 0.1
Cn1cc(-c2cc3c(N4CCN(C(=O)O[C@@H]5CCC5(F)F)CC4)ccnc3[nH]2)cn1 [Compound 263]	≤ 0.01	≤ 0.1
Cn1cnc(-c2cc3c(N4CCN(C(=O)O[C@@H]5CCC5(F)F)CC4)ccnc3[nH]2)c1 [Compound 264]	≤ 0.01	≤ 0.1
Cn1cnc(-c2cc3c(N4CCN(C(=O)O[C@H]5CCC5(F)F)CC4)ccnc3[nH]2)c1 [Compound 265]	≤ 0.01	≤ 0.1
Cn1cc(-c2cc3c(N4CCN(C(=O)OC5CC(F)(F)C5)CC4)ccnc3[nH]2)cn1 [Compound 266]	≤ 0.01	≤ 0.1
Cn1cc(-c2[nH]c3nccc(N4CCN(C(=O)O[C@H]5C[C@H](F)C5)CC4)c3c2F)cn1 [Compound 267]	≤ 0.01	≤ 0.1
Cn1cc(-c2cc3c(N4CCN(C(=O)O[C@H]5CCC5(F)F)CC4)ccnc3[nH]2)cn1 [Compound 268]	≤ 0.01	≤ 0.1
Cn1cnc(-c2cc3c(N4CCN(C(=O)OC5CC(F)(F)C5)CC4)ccnc3[nH]2)c1 [Compound 269]	≤ 0.01	≤ 0.1
O=C(C1CC1)N1CCN(c2ccnc3[nH]c(-c4ccc(C5CCOC5)cc4)cc23)CC1 (stereo not drawn) [Compound 270]	≤ 0.01	≤ 0.1
CC1(c2ccc(-c3cc4c(N5CCN(C(=O)C6CC6)CC5)ccnc4[nH]3)cc2)COC1 [Compound 271]	≤ 0.01	≤ 0.1
O=C(C1CC1)N1CCN(c2ccnc3[nH]c(-c4ccc(C5(O)CCC5)cc4)cc23)CC1 [Compound 272]	≤ 0.01	≤ 0.1
O=C(C1CC1)N1CCN(c2ccnc3[nH]c(-c4ccc(OC5CCC5)cc4)cc23)CC1 [Compound 273]	≤ 0.01	0.1 to 0.5
Cn1cnc(-c2[nH]c3nccc(N4CCN(C(=O)OC5COC5)CC4)c3c2Cl)c1 [Compound 274]	≤ 0.01	≤ 0.1

From patent US11236086B2, “Substituted pyrrolopyridines as inhibitors of activin receptor-like kinase” (BLUEPRINT MEDICINES CORPORATION, priority 2017, dated 2022)
